Measured values reported in the NIST ThermoML archive (doi:10.1021/je800110r).

Details: 293.15 K, Liquid, Vibrating tube method

CCCCCCCCCC [decane]
Details | mass density [kg/m3]
12325 kPa | 739.1
12342 kPa | 739.1
12359 kPa | 739
12381 kPa | 739
12401 kPa | 739.1
12417 kPa | 739
12437 kPa | 739.1
12454 kPa | 739
12476 kPa | 739.3
12499 kPa | 739.2
12516 kPa | 739.1
12536 kPa | 739.1
12556 kPa | 739.1
12576 kPa | 739.1
12593 kPa | 739.2
12610 kPa | 739.3
12633 kPa | 739.3
12653 kPa | 739.2
12677 kPa | 739.2
12703 kPa | 739.2
12720 kPa | 739.2
12744 kPa | 739.3
12759 kPa | 739.2
12785 kPa | 739.3
12809 kPa | 739.3
12827 kPa | 739.3
12851 kPa | 739.3
12872 kPa | 739.5
12896 kPa | 739.3
12917 kPa | 739.5
12939 kPa | 739.5
12957 kPa | 739.4
12978 kPa | 739.4
12999 kPa | 739.5
13018 kPa | 739.5
13039 kPa | 739.5
13058 kPa | 739.5
13080 kPa | 739.6
13098 kPa | 739.5
13127 kPa | 739.6
13152 kPa | 739.6
13172 kPa | 739.7
13197 kPa | 739.5
13216 kPa | 739.6
13235 kPa | 739.6
13251 kPa | 739.7
13274 kPa | 739.7
13290 kPa | 739.7
13309 kPa | 739.7
13329 kPa | 739.6
13359 kPa | 739.6
13385 kPa | 739.8
13408 kPa | 739.7
13435 kPa | 739.7
13459 kPa | 739.8
13479 kPa | 739.8
13501 kPa | 740
13525 kPa | 739.9
13548 kPa | 739.8
13569 kPa | 740
13586 kPa | 739.9
13609 kPa | 739.9
13626 kPa | 739.9
13644 kPa | 739.8
13667 kPa | 740
13686 kPa | 740
13701 kPa | 740
13722 kPa | 739.9
13745 kPa | 740
13766 kPa | 739.9
13784 kPa | 739.9
13802 kPa | 740
13820 kPa | 740
13844 kPa | 740
13862 kPa | 740.1
13881 kPa | 739.9
13903 kPa | 740.2
13927 kPa | 740.1
13943 kPa | 740.1
13967 kPa | 740.3
13989 kPa | 740.1
14008 kPa | 740.2
14024 kPa | 740.3
14044 kPa | 740.1
14061 kPa | 740.2
14081 kPa | 740.3
14098 kPa | 740.3
14121 kPa | 740.2
14139 kPa | 740.3
14151 kPa | 740.3
14167 kPa | 740.2
14181 kPa | 740.4
14194 kPa | 740.3
14205 kPa | 740.2
14220 kPa | 740.4
14232 kPa | 740.3
14245 kPa | 740.4
14257 kPa | 740.4
14269 kPa | 740.2
14281 kPa | 740.3
14297 kPa | 740.4
14314 kPa | 740.4
14325 kPa | 740.4
14339 kPa | 740.4
14352 kPa | 740.4
14363 kPa | 740.4
14376 kPa | 740.4
14389 kPa | 740.4
14404 kPa | 740.4
14418 kPa | 740.4
14427 kPa | 740.5
14443 kPa | 740.4
14458 kPa | 740.5
14471 kPa | 740.4
14483 kPa | 740.6
14500 kPa | 740.6
14517 kPa | 740.5
14529 kPa | 740.4
14542 kPa | 740.6
14554 kPa | 740.4
14566 kPa | 740.6
14580 kPa | 740.6
14592 kPa | 740.5
14605 kPa | 740.5
14617 kPa | 740.6
14637 kPa | 740.6
14650 kPa | 740.7
14664 kPa | 740.6
14676 kPa | 740.7
14691 kPa | 740.6
14706 kPa | 740.7
14717 kPa | 740.7
14735 kPa | 740.6
14753 kPa | 740.7
14765 kPa | 740.7
14779 kPa | 740.7
14791 kPa | 740.7
14807 kPa | 740.7
14821 kPa | 740.7
14833 kPa | 740.8
14847 kPa | 740.7
14859 kPa | 740.7
14877 kPa | 740.9
14893 kPa | 740.7
14910 kPa | 740.8
14926 kPa | 740.8
14943 kPa | 740.9
14959 kPa | 740.8
14975 kPa | 740.9
14992 kPa | 740.9
15008 kPa | 740.8
15023 kPa | 740.8
15039 kPa | 740.9
15050 kPa | 740.9
15066 kPa | 740.9
15087 kPa | 740.9
15102 kPa | 740.9
15115 kPa | 741
15129 kPa | 740.8
15143 kPa | 741
15156 kPa | 740.9
15175 kPa | 741
15192 kPa | 741
15209 kPa | 740.9
15224 kPa | 741
15236 kPa | 741
15251 kPa | 741.2
15270 kPa | 741.1
15288 kPa | 741.1
15305 kPa | 741.1
15317 kPa | 741.1
15339 kPa | 741.1
15352 kPa | 741
15365 kPa | 741.1
15382 kPa | 741.1
15393 kPa | 741.1
15408 kPa | 741.2
15428 kPa | 741.1
15443 kPa | 741.2
15454 kPa | 741
15470 kPa | 741.2
15485 kPa | 741.2
15503 kPa | 741.2
15519 kPa | 741.2
15539 kPa | 741.2
15556 kPa | 741.1
15572 kPa | 741.2
15588 kPa | 741.1
15604 kPa | 741.4
15622 kPa | 741.2
15644 kPa | 741.2
15658 kPa | 741.2
15676 kPa | 741.3
15694 kPa | 741.4
15710 kPa | 741.3
15722 kPa | 741.3
15735 kPa | 741.3
15751 kPa | 741.4
15769 kPa | 741.4
15792 kPa | 741.3
15809 kPa | 741.5
15827 kPa | 741.3
15843 kPa | 741.3
15857 kPa | 741.5
15872 kPa | 741.5
15888 kPa | 741.4
15909 kPa | 741.5
15925 kPa | 741.5
15942 kPa | 741.5
15959 kPa | 741.5
15974 kPa | 741.5
15989 kPa | 741.5
16007 kPa | 741.6
16024 kPa | 741.5
16039 kPa | 741.6
16056 kPa | 741.5
16073 kPa | 741.6
16093 kPa | 741.6
16108 kPa | 741.6
16128 kPa | 741.6
16142 kPa | 741.6
16167 kPa | 741.7
16183 kPa | 741.8
16198 kPa | 741.7
16215 kPa | 741.7
16233 kPa | 741.7
16251 kPa | 741.8
16267 kPa | 741.8
16282 kPa | 741.7
16298 kPa | 741.7
16314 kPa | 741.7
16332 kPa | 741.6
16345 kPa | 741.8
16369 kPa | 741.8
16390 kPa | 741.8
16405 kPa | 741.8
16426 kPa | 741.8
16442 kPa | 741.9
16464 kPa | 741.8
16484 kPa | 741.9
16503 kPa | 741.9
16517 kPa | 741.9
16533 kPa | 741.9
16557 kPa | 741.9
16569 kPa | 741.9
16584 kPa | 741.8
16597 kPa | 741.9
16615 kPa | 741.9
16628 kPa | 742
16646 kPa | 742
16662 kPa | 742.1
16681 kPa | 742
16694 kPa | 742
16705 kPa | 742.1
16717 kPa | 742
16728 kPa | 742
16745 kPa | 742.2
16761 kPa | 742
16772 kPa | 742.1
16786 kPa | 742
16800 kPa | 742
16814 kPa | 742
16828 kPa | 742.2
16842 kPa | 742
16860 kPa | 742.1
16874 kPa | 742.1
16892 kPa | 742.1
16905 kPa | 742.1
16923 kPa | 742.2
16935 kPa | 742.1
16956 kPa | 742.1
16972 kPa | 742.3
16986 kPa | 742.2
